Source: patent US20060159666A1, “Method of potentiating inflammatory and immune modulation for cell and drug therapy” (priority 2004, published 2006)

How the values were obtained:
HUCBCs [1] = assay: 96-Chemotx migration assay of HUCBCs to recombinant chemoattractants; type: cell-based, human; conditions: MCP-1 5-30 ng/mL, IL-3 1-10 ng/mL, TPO 10-40 ng/mL; 4 hr; ATP luminescence
Protocol: HUCBCs were prepared as described above and cultured for 24 hr before use. The 96-Chemotx chambers (NeuroProbe, Gaithersburg, Md.) were used for the migration assays. The chamber is a 96-well plate consisting of bottom wells to hold the unknowns or chemoattractant and a top plate, which is a polycarbonate membrane with 5 μm pore size. […] All were pipetted (300 μL) directly into the bottom wells, in triplicate, after which the top plate was securely attached. The HUCBCs were pipetted directly into each top well at a concentration of 62,000 cells per 25 μL. The migration chambers were then placed in a cell culture incubator at 37° C. with 5% CO2 for 4 hr. The top plates were removed and the bottom plates were then centrifuged (300 rpm for 10 min) to force cells to the bottom. Half the medium (150 μL) was then removed and a cell viability assay (CellTiter-Glo Kit, Promega), which is based on the ability of live cells to incorporate adenosine triphosphate (ATP), was used to determine the numbers of cells that had migrated. The migration plate was read in an automated plate reader (BioTek) set to the appropriate luminescence.

HUCBCs [2] = assay: 96-Chemotx migration assay of HUCBCs to MCAO brain tissue extracts; type: cell-based, human; conditions: positive control; 4 hours
From the text: In determining the time course of HUCBC migration into brain after a stroke, an ex vivo experimental approach was employed. Male Sprague Dawley rats under a permanent middle cerebral artery occlusion (MCAO); a nylon filament was threaded through the internal carotid artery to the origin of the MCA and permanently ligated in place. At 4, 6, 12, 24, 48, 72 hrs and 1 week after ischemia the animals were euthanized and the brains removed within two min, immediately flash-frozen and then stored at −80° C. until needed. The frozen brains were semi-thawed and kept cold. The striatum, hippocampus, and the cortex were dissected from the sides both ipsilateral and contralateral to the occlusion. The same dissections were performed for sham surgery and normal rats. Tissue from each of the conditions were pooled, and kept on ice in clear Dulbecco's modified Eagle's medium (DMEM, Invitrogen, Carlsbad, Calif.). […]
The cryopreserved HUCBCs were thawed and transferred into clear DMEM with 5% FBS and 1 μL/1 mL of Gentamicin (Sigma, St. Louis). […] Cord blood cells were then plated in low adherence 6 well culture dishes (Corning, Corning, N.Y.) for 24 hrs in a water jacket incubator set at 37° C. and with 5% CO2 After 24 hrs cells were lifted by gentle pipetting, placed in a 15 mL tube, centrifuged, resuspended in 1 mL of media without FBS, and viability assessed using the trypan blue dye exclusion method. […]

HUCBCs [3] = assay: Human cytokine antibody array of HUCBC conditioned medium; type: cell-based; conditions: Ex Vivo 10 medium; IL-3 5 ng/mL or TPO 25 ng/mL for 5 d; 42-cytokine array
Protocol: The mononuclear fraction of the HUCBCs was obtained from Saneron CCEL Therapeutics, Inc. (Oldsmar, Fla.). Frozen samples were thawed in 10 mL of DMEM (Gibco), supplemented with 5% fetal bone serum (FBS, Gibco) and gentamicin (50 μg/mL, Sigma), or with Ex Vivo 10 media with gentamicin (50 μg/mL, Sigma). After centrifugation for 10 min at 200 rpm, the supernatant was removed and the cells were resuspended in 1 mL of the same medium. The viability of all samples ranged from 73% to 95% as determined by the ability to exclude trypan blue dye. Cells were then cultured for 3 to 14 d for cytokine arrays and ELISA assays; cells cultured in Ex Vivo 10 media were further stimulated with IL-3, TPO or both.
In order to address this, we used human cytokine arrays to establish whether the HUCBCs secreted these proteins. To determine the cytokines that HUCBCs released during culture, we used a TranSignal human cytokine antibody array (Panomics, Inc., Redwood City, Calif.), which simultaneously profiles either 23 (Array 1.0) or 42 (Array 3.0) cytokines/assay at the protein level. First, we examined whether cytokine production increased as a function of seeding density. The HUCBC were cultured at concentrations of 5, 10, or 30×10^6 per 5 mL of serum free DMEM with Gentamicin (50 μg/mL) for 3 d. […]

Row | Substance | HUCBC migration to chemoattractant compared to controls (DMEM and PBS) (HUCBCs [1]) | HUCBC migration to SDF-1 chemoattractant compared to all other conditions (HUCBCs [2]) | cytokine release from HUCBCs after stimulation (HUCBCs [3])
1 | MCP-1: human recombinant MCP-1 used as chemoattractant | Significantly more HUCBCs migrated | – | –
2 | SDF-1: Stromal derived factor 1, chemoattractant used as positive control | – | Significantly more HUCBCs | –
3 | TPO: thrombopoietin, factor known to stimulate hematopoietic cells | Significantly more HUCBCs migrated | – | a somewhat different profile of protein release
